Measurements from patent US10273235B2, “Compositions and methods for inhibiting β-lactamase” (LegoChem Biosciences, Inc., priority 2015, dated 2019).
Counter-ions that a name gives are not always drawn.

Legend:
[1] = target: KPC-3 β-lactamase (class A) (Klebsiella pneumoniae, UniProt Q9F663, H272Y); assay: Inhibitory activity against β-lactamases (nitrocefin), KPC-3; type: biochemical, K. pneumoniae
Experimental: (§1) More diluted stocks were prepared as necessary. Enzyme activity was determined by monitoring the change of absorbance at 492 nm using the characteristic molecular extinction coefficient (Δε492=17,400 M^−1 cm^−1) of nitrocefin by a Shimazu UV-1650PC spectrophotometer. The nitrocefin was purchased from OXOID. Kinetic measurements were run at 30° C. in 10 mM MES[2-(N-morpholino)ethanesulfonic acid]buffer (pH 6.8) or 10 mM MES[2-(N-morpholino)ethanesulfonic acid] buffer (pH 6.8), […] BSA and 50 mM sodium bicarbonate. Reactions were performed in 2.5 mL cuvettes with 100 μM nitrocefin and initiated by adding 1.5 nM to 2.5 nM enzyme. The first 180 s of each reaction was used to measure initial rates. Data were evaluated using Microsoft Excel. Concentration dependent inhibition of enzyme was measured using different concentrations of inhibitors resulting from two-fold dilution series. Reaction progress at every concentration of inhibitor was measured in triplicates. IC50 values were calculated using 4-parameter log fits using XL Fit curve fitting software (www.idbs.com) for Excel using the following equation:
(§2) [formula] where y is the remaining enzyme activity (in %) and x is the corresponding concentration. he fitted IC50 parameter is the relative IC50, and is defined as the concentration giving a response half way between the fitted top (B) and bottom (A) of the curve.

[2] = target: T1, CMY-10 β-lactamase (class C) (Klebsiella aerogenes, UniProt Q99QC1); assay: Inhibitory activity against β-lactamases (nitrocefin), CMY-10; type: biochemical
T1 construct: MICs of bacterial strains used for extraction of enzymes; endogenous in cells
Experimental: as §1, §2

[3] = target: T2, OXA-48 β-lactamase (class D) (Klebsiella pneumoniae, UniProt Q6XEC0); assay: Inhibitory activity against β-lactamases (nitrocefin), OXA-48; type: biochemical; settings: 100 μM nitrocefin, 30° C., pH 6.8
T2 construct: MICs of bacterial strains used for extraction of enzymes; endogenous in cells; host or cells: bacterial strain carrying OXA-48 (E. coli according to the earlier reading)
Experimental: as §1, §2

[4] = target: T3, NDM-1 β-lactamase (class B) (Klebsiella pneumoniae, UniProt C7C422); assay: Inhibitory activity against β-lactamases (nitrocefin), NDM-1; type: biochemical; settings: 100 μM nitrocefin, 30° C., pH 6.8
T3 construct: MICs of bacterial strains used for extraction of enzymes; endogenous in cells; host or cells: bacterial strain carrying NDM-1 (E. coli according to the earlier reading)
Experimental: as §1, §2

[5] = test system: K. pneumoniae clinical strains expressing β-lactamases; assay: BLI potentiation MIC, panel of K. pneumoniae clinical strains expressing β-lactamases (isoxazoline vs. isoxazole); type: cell-based; settings: in combination with Meropenem and LCB10-0200; Table 12
Experimental: MIC90 (μg/mL) is the lowest concentration of an antibiotic that will inhibit the visible growth of 90% of microorganisms after incubation as compared with a control group to which the antibiotic is not treated.
MIC values were measured by the broth microdilution method developed by the Clinical and Laboratory Standards Institute (CLSI) (see CLSI M07-A9, Methods for Dilution Antimicrobial Susceptibility Test for Bacteria that Grow Aerobically; Approved Standard-Ninth Edition (2012): CLSI, Villanova, Pa.). The in vitro antibacterial activity was measured with respect to the following 9 clinical isolates: P. aeruginosa (3 strains); K. pneumoniae (6 strains). The in vitro antibacterial activity of selected compounds was measured with respect to the following 15 clinical isolates: K. pneumoniae (15 strains).

T2 sequence (Q6XEC0 23-265, looked up): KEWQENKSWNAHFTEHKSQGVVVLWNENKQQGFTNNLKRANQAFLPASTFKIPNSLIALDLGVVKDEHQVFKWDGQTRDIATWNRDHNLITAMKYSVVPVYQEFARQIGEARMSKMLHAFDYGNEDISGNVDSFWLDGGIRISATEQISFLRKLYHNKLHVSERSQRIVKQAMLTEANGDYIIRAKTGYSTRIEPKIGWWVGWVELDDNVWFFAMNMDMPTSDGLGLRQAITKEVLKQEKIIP
T1 sequence (Q99QC1 24-382): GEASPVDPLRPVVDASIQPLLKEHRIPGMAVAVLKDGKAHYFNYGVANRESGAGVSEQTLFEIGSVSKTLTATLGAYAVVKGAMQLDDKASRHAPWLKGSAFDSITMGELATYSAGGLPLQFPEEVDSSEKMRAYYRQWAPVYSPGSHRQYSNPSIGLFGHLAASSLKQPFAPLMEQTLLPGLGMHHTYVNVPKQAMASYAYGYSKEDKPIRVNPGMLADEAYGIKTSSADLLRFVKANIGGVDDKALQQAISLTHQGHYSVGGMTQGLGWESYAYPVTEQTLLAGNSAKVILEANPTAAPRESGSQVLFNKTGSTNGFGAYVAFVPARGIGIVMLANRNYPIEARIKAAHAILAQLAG
T3 sequence (C7C422 29-270, looked up): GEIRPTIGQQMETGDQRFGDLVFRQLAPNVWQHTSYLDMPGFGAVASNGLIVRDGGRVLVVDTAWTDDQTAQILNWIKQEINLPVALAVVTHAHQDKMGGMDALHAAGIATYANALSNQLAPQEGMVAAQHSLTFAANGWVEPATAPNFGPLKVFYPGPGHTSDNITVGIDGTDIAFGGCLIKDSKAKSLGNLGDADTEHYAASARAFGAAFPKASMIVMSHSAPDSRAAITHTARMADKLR
Chain of KPC-3 β-lactamase (class A) (Q9F663 25-293 H272Y): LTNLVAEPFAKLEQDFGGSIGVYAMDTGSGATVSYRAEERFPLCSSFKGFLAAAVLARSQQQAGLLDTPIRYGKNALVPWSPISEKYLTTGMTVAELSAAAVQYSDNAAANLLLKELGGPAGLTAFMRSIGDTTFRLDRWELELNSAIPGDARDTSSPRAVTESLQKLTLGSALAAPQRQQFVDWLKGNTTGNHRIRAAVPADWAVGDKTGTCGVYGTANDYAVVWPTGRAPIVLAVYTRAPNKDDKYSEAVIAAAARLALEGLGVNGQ

`NC[C@H]1CC([C@@H]2CC[C@@H]3CN2C(=O)N3OS(=O)(=O)O)=NO1` [Example 15, [(2S)-2-[(5R)-5-(aminomethyl)-4,5-dihydroisoxazol-3-yl]-7-oxo-1,6-diazabicyclo[3.2.1]octan-6-yl] hydrogen sulfate] showed an IC50 [1] of 3.03 µM, an IC50 [2] of 123 nM and an IC50 [3] of 6.42 µM. The IC50 [4] was 1.65 mM and the “coverage on various β-lactamases compared with Cubist-1” value [5] was “much broader coverage on various β-lactamases than Cubist-1”.
